Data from patent publication US8703768B2, “Nitrogen containing heteroaryl compounds” (Hoffmann-La Roche Inc., priority 2010, dated 2014).

The molecules below were run against human PDE10A (Homo sapiens (Human), UniProt Q9Y233) (assay: human PDE10A full length Scintillation Proximity Assay (SPA)). Conditions: 50 nM cGMP and 50 nM [3H]-cGMP, 20 minutes at room temperature; read-out: PDE10A inhibition IC50.
Assay type: biochemical
Procedure, shortened: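 Radiometric SPA read-out: after 20 min at room temperature with [^3H]-cGMP/cGMP substrate, zinc sulphate (18 mM) bead stop reagent added and counts read after 1 h. Non-specific signal defined without enzyme; full-length protein used.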

human PDE10A, sequence (Q9Y233 other isoform, or with tags, fused parts or gaps): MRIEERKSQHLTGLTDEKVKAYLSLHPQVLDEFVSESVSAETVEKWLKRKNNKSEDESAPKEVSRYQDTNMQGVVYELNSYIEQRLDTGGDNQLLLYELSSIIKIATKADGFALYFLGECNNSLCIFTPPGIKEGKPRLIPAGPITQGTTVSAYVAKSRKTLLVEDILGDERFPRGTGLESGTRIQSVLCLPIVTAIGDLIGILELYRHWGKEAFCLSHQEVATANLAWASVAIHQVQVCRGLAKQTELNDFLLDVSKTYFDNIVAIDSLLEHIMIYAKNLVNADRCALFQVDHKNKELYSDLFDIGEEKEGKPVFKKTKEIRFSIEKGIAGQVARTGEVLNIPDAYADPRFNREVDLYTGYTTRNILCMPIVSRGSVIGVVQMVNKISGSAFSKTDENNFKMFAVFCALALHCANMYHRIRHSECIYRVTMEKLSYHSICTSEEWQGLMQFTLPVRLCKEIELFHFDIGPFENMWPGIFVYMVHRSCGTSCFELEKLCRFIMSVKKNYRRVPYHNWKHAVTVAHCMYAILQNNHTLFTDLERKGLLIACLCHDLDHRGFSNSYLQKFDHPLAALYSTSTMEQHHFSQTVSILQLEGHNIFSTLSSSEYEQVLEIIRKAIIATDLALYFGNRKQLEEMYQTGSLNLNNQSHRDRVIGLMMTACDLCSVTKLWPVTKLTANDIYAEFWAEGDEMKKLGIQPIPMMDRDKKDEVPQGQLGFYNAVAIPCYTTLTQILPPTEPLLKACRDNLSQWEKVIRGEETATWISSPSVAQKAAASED

IC50 [nM]	SMILES
16.9	CCn1ncc(NC(=O)c2nc(C3CC3)cnc2Nc2cncnc2)c1C(=O)NCC(C)(C)O [Example 132, 6-Cyclopropyl-3-(pyrimidin-5-ylamino)-pyrazine-2-carboxylic acid [1-ethyl-5-(2-hydroxy-2-methyl-propylcarbamoyl)-1H-pyrazol-4-yl]-amide]
6.7	CCn1ncc(NC(=O)c2nc(C3CC3)cnc2Nc2cncnc2)c1C(=O)NC [Example 133, 6-Cyclopropyl-3-(pyrimidin-5-ylamino)-pyrazine-2-carboxylic acid (1-ethyl-5-methylcarbamoyl-1H-pyrazol-4-yl)-amide]
21.5	CC(C)Cn1ncc(NC(=O)c2nc(C3CC3)cnc2Nc2cncnc2)c1C(=O)NCC(C)(C)O [Example 134, 6-Cyclopropyl-3-(pyrimidin-5-ylamino)-pyrazine-2-carboxylic acid [5-(2-hydroxy-2-methyl-propylcarbamoyl)-1-isobutyl-1H-pyrazol-4-yl]-amide]
3.6	Cn1ncc(NC(=O)c2nc(C3CC3)cnc2Nc2cncnc2)c1C(=O)NC1(C)COC1 [Example 136, 6-Cyclopropyl-3-(pyrimidin-5-ylamino)-pyrazine-2-carboxylic acid [1-methyl-5-(3-methyl-oxetan-3-ylcarbamoyl)-1H-pyrazol-4-yl]-amide]
58.7	CNC(=O)c1c(NC(=O)c2nc(C3CC3)cnc2Nc2cncnc2)cnn1CC(C)C [Example 137, 6-Cyclopropyl-3-(pyrimidin-5-ylamino)-pyrazine-2-carboxylic acid (1-isobutyl-5-methylcarbamoyl-1H-pyrazol-4-yl)-amide]
24.9	CC(C)n1ncc(NC(=O)c2nc(C3CC3)cnc2Nc2cncnc2)c1C(=O)NCC(C)(C)O [Example 138, 6-Cyclopropyl-3-(pyrimidin-5-ylamino)-pyrazine-2-carboxylic acid [5-(2-hydroxy-2-methyl-propylcarbamoyl)-1-isopropyl-1H-pyrazol-4-yl]-amide]
11.6	CNC(=O)c1c(NC(=O)c2nc(C3CC3)cnc2Nc2cncnc2)cnn1C(C)C [Example 139, 6-Cyclopropyl-3-(pyrimidin-5-ylamino)-pyrazine-2-carboxylic acid (1-isopropyl-5-methylcarbamoyl-1H-pyrazol-4-yl)-amide]
3	Cn1ncc(NC(=O)c2nc(C3CC3)cnc2Nc2cncnc2)c1C(=O)NCCC(C)(C)O [Example 140, 6-Cyclopropyl-3-(pyrimidin-5-ylamino)-pyrazine-2-carboxylic acid [5-(3-hydroxy-3-methyl-butylcarbamoyl)-1-methyl-1H-pyrazol-4-yl]-amide]
1.1	Cn1ncc(NC(=O)c2nc(C3CC3)cnc2Nc2cncnc2)c1C(=O)NCC(C)(C)CO [Example 142, 6-Cyclopropyl-3-(pyrimidin-5-ylamino)-pyrazine-2-carboxylic acid [5-(3-hydroxy-2,2-dimethyl-propylcarbamoyl)-1-methyl-1H-pyrazol-4-yl]-amide]
23.3	Cn1ncc(NC(=O)c2nc(C3CC3)cnc2Nc2cncnc2)c1C(=O)N1CC(F)(F)C1 [Example 143, 6-Cyclopropyl-3-(pyrimidin-5-ylamino)-pyrazine-2-carboxylic acid [5-(3,3-difluoro-azetidine-1-carbonyl)-1-methyl-1H-pyrazol-4-yl]-amide]
2.1	Cn1ncc(NC(=O)c2nc(C3CC3)cnc2Nc2cncnc2)c1C(=O)NCC(F)(F)F [Example 144, 6-Cyclopropyl-3-(pyrimidin-5-ylamino)-pyrazine-2-carboxylic acid [1-methyl-5-(2,2,2-trifluoro-ethylcarbamoyl)-1H-pyrazol-4-yl]-amide]
2.9	Cn1ncc(NC(=O)c2nc(C3CC3)cnc2Nc2cncnc2)c1C(=O)NCC(F)F [Example 145, 6-Cyclopropyl-3-(pyrimidin-5-ylamino)-pyrazine-2-carboxylic acid [5-(2,2-difluoro-ethylcarbamoyl)-1-methyl-1H-pyrazol-4-yl]-amide]
1.7	Cn1ncc(NC(=O)c2nc(C3CC3)cnc2Nc2cncnc2)c1C(=O)NCC(O)C(F)(F)F (stereo not shown) [Example 146, 6-Cyclopropyl-3-(pyrimidin-5-ylamino)-pyrazine-2-carboxylic acid [1-methyl-5-(3,3,3-trifluoro-2-hydroxy-propylcarbamoyl)-1H-pyrazol-4-yl]-amide]
1.2	CNC(=O)c1c(NC(=O)c2nc(C3CC3)cnc2Nc2cncnc2)cnn1CCOC [Example 147, 6-Cyclopropyl-3-(pyrimidin-5-ylamino)-pyrazine-2-carboxylic acid [1-(2-methoxy-ethyl)-5-methylcarbamoyl-1H-pyrazol-4-yl]-amide]
14.4	CNC(=O)c1c(NC(=O)c2nc(C3CC3)ccc2Nc2cncnc2)cnn1C [Example 148, 6-Cyclopropyl-3-(pyrimidin-5-ylamino)-pyridine-2-carboxylic acid (1-methyl-5-methylcarbamoyl-1H-pyrazol-4-yl)-amide]
8.5	Cn1ncc(NC(=O)c2nc(C3CC3)cnc2Nc2cncnc2)c1C(N)=O [Example 150, 6-Cyclopropyl-3-(pyrimidin-5-ylamino)-pyrazine-2-carboxylic acid (5-carbamoyl-1-methyl-1H-pyrazol-4-yl)-amide]

IC50 [nM]	SMILES
2.7	COC(C)(C)CNC(=O)c1c(NC(=O)c2nc(C3CC3)cnc2Nc2cncnc2)cnn1C [Example 151, 6-Cyclopropyl-3-(pyrimidin-5-ylamino)-pyrazine-2-carboxylic acid [5-(2-methoxy-2-methyl-propylcarbamoyl)-1-methyl-1H-pyrazol-4-yl]-amide]
3.4	Cn1ncc(NC(=O)c2nc(C3CC3)cnc2Nc2cncnc2)c1C(=O)NC(C)(C)CO [Example 152, 6-Cyclopropyl-3-(pyrimidin-5-ylamino)-pyrazine-2-carboxylic acid [5-(2-hydroxy-1,1-dimethyl-ethylcarbamoyl)-1-methyl-1H-pyrazol-4-yl]-amide]
16.1	CN(CC(C)(C)O)C(=O)c1c(NC(=O)c2nc(C3CC3)cnc2Nc2cncnc2)cnn1C [Example 153, 6-Cyclopropyl-3-(pyrimidin-5-ylamino)-pyrazine-2-carboxylic acid {5-[(2-hydroxy-2-methyl-propyl)-methyl-carbamoyl]-1-methyl-1H-pyrazol-4-yl}-amide]
12.7	Cn1ncc(NC(=O)c2nc(C3CC3)cnc2Nc2cncnc2)c1C(=O)N1CCC1 [Example 155, 6-Cyclopropyl-3-(pyrimidin-5-ylamino)-pyrazine-2-carboxylic acid [5-(azetidine-1-carbonyl)-1-methyl-1H-pyrazol-4-yl]-amide]
11.2	Cn1ncc(NC(=O)c2nc(C3CC3)cnc2Nc2cncnc2)c1C(=O)N1CCCC1 [Example 156, 6-Cyclopropyl-3-(pyrimidin-5-ylamino)-pyrazine-2-carboxylic acid [1-methyl-5-(pyrrolidine-1-carbonyl)-1H-pyrazol-4-yl]-amide]
0.8	CNC(=O)c1nc(C2CC2)ccc1NC(=O)c1nc(C2CC2)cnc1Nc1cncnc1 [Example 158, 6-Cyclopropyl-3-(pyrimidin-5-ylamino)-pyrazine-2-carboxylic acid (6-cyclopropyl-2-methylcarbamoyl-pyridin-3-yl)-amide]
0.4	CC(C)(O)CNC(=O)c1nc(C2CC2)ccc1NC(=O)c1nc(C2CC2)cnc1Nc1cncnc1 [Example 159, 6-Cyclopropyl-3-(pyrimidin-5-ylamino)-pyrazine-2-carboxylic acid [6-cyclopropyl-2-(2-hydroxy-2-methyl-propylcarbamoyl)-pyridin-3-yl]-amide]
2.9	CNC(=O)c1c(NC(=O)c2nc(C3CCOC3)cnc2Nc2cncnc2)cnn1C (stereo not shown) [Example 160, 3-(Pyrimidin-5-ylamino)-6-(tetrahydro-furan-3-yl)-pyrazine-2-carboxylic acid (1-methyl-5-methylcarbamoyl-1H-pyrazol-4-yl)-amide]
124	Cn1ncc(NC(=O)c2nc(C3CC3)c(C3CCCO3)nc2Nc2cncnc2)c1C(=O)NCCF (stereo not shown) [Example 162, 6-Cyclopropyl-3-(pyrimidin-5-ylamino)-5-(tetrahydro-furan-2-yl)-pyrazine-2-carboxylic acid [5-(2-fluoro-ethylcarbamoyl)-1-methyl-1H-pyrazol-4-yl]-amide]
6.2	O=C(NC1CC1)c1nocc1NC(=O)c1nc(C2CC2)cnc1Nc1cncnc1 [Example 163, 6-Cyclopropyl-3-(pyrimidin-5-ylamino)-pyrazine-2-carboxylic acid (3-cyclopropylcarbamoyl-isoxazol-4-yl)-amide]
5.2	CC(NC(=O)c1c(NC(=O)c2nc(C3CC3)cnc2Nc2cncnc2)cnn1C)C(F)(F)F (stereo not shown) [Example 164, 6-Cyclopropyl-3-(pyrimidin-5-ylamino)-pyrazine-2-carboxylic acid [1-methyl-5-(2,2,2-trifluoro-1-methyl-ethylcarbamoyl)-1H-pyrazol-4-yl]-amide]
2.2	Cn1ncc(NC(=O)c2nc(C3CC3)cnc2Nc2cncnc2)c1C(=O)NCC(C)(F)F [Example 165, 6-Cyclopropyl-3-(pyrimidin-5-ylamino)-pyrazine-2-carboxylic acid [5-(2,2-difluoro-propylcarbamoyl)-1-methyl-1H-pyrazol-4-yl]-amide]
335	CNC(=O)c1c(NC(=O)c2nc(Cl)ccc2Nc2cncnc2)cnn1C [Example 166, 6-Chloro-3-(pyrimidin-5-ylamino)-pyridine-2-carboxylic acid (1-methyl-5-methylcarbamoyl-1H-pyrazol-4-yl)-amide]
4.4	CC(C)CNC(=O)c1c(NC(=O)c2nc(C3CC3)cnc2Nc2cncnc2)cnn1C [Example 167, 6-Cyclopropyl-3-(pyrimidin-5-ylamino)-pyrazine-2-carboxylic acid (5-isobutylcarbamoyl-1-methyl-1H-pyrazol-4-yl)-amide]
32.9	Cn1ncc(NC(=O)c2nc(C3CC3)cnc2Nc2cncnc2)c1C(=O)N1CCCCC1 [Example 168, 6-Cyclopropyl-3-(pyrimidin-5-ylamino)-pyrazine-2-carboxylic acid [1-methyl-5-(piperidine-1-carbonyl)-1H-pyrazol-4-yl]-amide]
